The nature of data set [1]: clinical. The arrangement: dose or concentration left out as unconfirmed.
Method: (§1) The pharmacokinetic interactions of tegoprazan and aceclofenac when administered alone or in combination were evaluated in healthy adult males.
Data set [2] in a line: Pharmacokinetic interaction of tegoprazan and aceclofenac, alone or in combination (Cohort 2). To be noted: for effect of co-administration on pharmacokinetic properties: co-administration of tegoprazan and aceclofenac compared with administration alone; for Css,max, Geometric LS Mean: 7 days, N = 16.
Method: as §1
Data set [3] in a line: Pharmacokinetic interaction of tegoprazan and celecoxib, alone or in combination (Cohort 3). As to conditions: for Css,max, Geometric LS Mean: 7 days, N = 13; for effect of co-administration on pharmacokinetic properties: co-administration of tegoprazan and celecoxib compared with administration alone; for AUC: male, human, in vivo.
Data set [4] can be described thus: Pharmacokinetic interaction of tegoprazan and naproxen, alone or in combination (Cohort 1). In kind it is in vivo, human (healthy adult males). To be noted: for effect of co-administration on pharmacokinetic properties: co-administration of tegoprazan and naproxen compared with administration alone.
The subject of data set [5] is naproxen-induced peptic ulcer model. As to the kind of experiment: Anti-ulcer activity in animal model of acute peptic ulcer induced by naproxen. In kind it is in vivo, SD rat. To be noted: for ED50: Rattus norvegicus, read-out: ED50 (anti-ulcer efficacy). The method, then:
Specifically, each of tegoprazan (0.1 to 10 mg/kg) and esomeprazole (0.3 to 30 mg/kg) was orally administered to each SD rat that has fasted for 72 hours.

The mark [6] stands for this setting: tegoprazan, Treatment A: 50 mg tegoprazan alone once a day.
[7] abbreviates: tegoprazan, co-administered with celecoxib vs alone.
Setting [8] is: tegoprazan, co-administered with aceclofenac vs alone.
The mark [9] stands for this setting: tegoprazan, co-administered with naproxen vs alone.

The text below walks through data of patent publication US20230158001A1, “PHARMACEUTICAL COMPOSITION COMPRISING BENZIMIDAZOLE DERIVATIVE COMPOUND” (HK INNO.N CORPORATION, priority 2020, published 2023).

Molecules are shown by their SMILES.

In the case of `O=C(O)COC(=O)Cc1ccccc1Nc1c(Cl)cccc1Cl` [Aceclofenac, aceclofenac, reference compound], in data set [1], the AUC came out at 20100 ng·h/mL. Further, the “effect of co-administration on pharmacokinetic properties” value (“effect of co-administration” for short) in data set [2] is on record as “does not affect the pharmacokinetic properties”.

As to `Cc1ccc(-c2cc(C(F)(F)F)nn2-c2ccc(S(N)(=O)=O)cc2)cc1` [Celecoxib, celecoxib, reference compound], the Css,max, Geometric LS Mean in data set [3] (celecoxib, Treatment F: 200 mg celecoxib alone twice a day) came out at 1140 ng/mL; in data set [3] (celecoxib, Treatment G: 50 mg tegoprazan once a day + 200 mg celecoxib twice a day), 1350 ng/mL. Moreover, the “effect of co-administration” value in data set [3] is reported as “does not affect the pharmacokinetic properties”. The AUC in data set [3] (200 mg) was 7800 ng·h/mL.

Consider `COc1ccc2cc([C@H](C)C(=O)O)ccc2c1` [Naproxen, naproxen, reference compound], for which, in data set [4], the “effect of co-administration” value is on record as “does not affect the pharmacokinetic properties”. For the same molecule, the “Css,max, Geometric LS Mean” value came to 92.34 ng/mL in data set [4] (naproxen, Treatment B: 500 mg naproxen alone twice a day, 7 days, N = 17) and 95.60 ng/mL in data set [4] (naproxen, Treatment C: 50 mg tegoprazan once a day + 500 mg naproxen twice a day, 7 days, N = 17).

Consider `Cc1nc2cc(C(=O)N(C)C)cc(O[C@H]3CCOc4cc(F)cc(F)c43)c2[nH]1` [Tegoprazan, (S)-4-(5,7-difluorochroman-4-yloxy)-N,N,2-trimethyl-1H-benzo[d]imidazole-6-carboxamide], for which the “effect of co-administration” value in data set [3], in data set [2] and in data set [4] was “does not affect the pharmacokinetic properties” each time. Also, the AUC in data set [3] (50 mg) was determined as 2990 ng·h/mL; in data set [2] (male, human, in vivo, 50 mg), 2680 ng·h/mL; in data set [4] (male, human, in vivo, tegoprazan, Treatment A: 50 mg tegoprazan alone once a day, 7 days, N = 17, read-out: AUCτ, Geometric LS Mean) it was 2650 ng·h/mL. Further, the “Css,max, Geometric LS Mean” value in data set [3] (setting [6]) was 663.83 ng/mL; in data set [3] (tegoprazan, Treatment G: 50 mg tegoprazan once a day + 200 mg celecoxib twice a day), 676.24 ng/mL; in data set [2] (setting [6]), 562.13 ng/mL; in data set [2] (tegoprazan, Treatment E: 50 mg tegoprazan once a day + 100 mg aceclofenac twice a day) it was 529.98 ng/mL; in data set [4] (tegoprazan, Treatment A: 50 mg tegoprazan alone once a day, 7 days, N = 17), 512.79 ng/mL; in data set [4] (tegoprazan, Treatment C: 50 mg tegoprazan once a day + 500 mg naproxen twice a day, 7 days, N = 17), 505.59 ng/mL. In addition, the “AUCτ, Geometric LS Mean Ratio (Treatment G/Treatment A), Point Estimate” value in data set [3] (setting [7]) was 1.0111. In addition, the “Css,max, Geometric LS Mean Ratio (Treatment G/Treatment A), Point Estimate” value in data set [3] (setting [7]) is 1.0187. Also, in data set [5], the ED50 was determined as 0.123 mg/kg. Also, the anti-ulcer activity entry in data set [5] (naproxen-induced peptic ulcer model, SD rats, oral 0.1 to 10 mg/kg) is reported as “excellent anti-ulcer activity”. In addition, the “AUCτ, Geometric LS Mean Ratio (Treatment E/Treatment A), Point Estimate” value in data set [2] (setting [8]) was 1.0269. The “Css,max, Geometric LS Mean Ratio (Treatment E/Treatment A), Point Estimate” value in data set [2] (setting [8]) is reported as 0.9428. In data set [4] (setting [9]), the “AUCτ, Geometric LS Mean Ratio (Treatment C/Treatment A), Point Estimate” value was 1.0105. The “Css,max, Geometric LS Mean Ratio (Treatment C/Treatment A), Point Estimate” value in data set [4] (setting [9]) is recorded as 0.9859.

As to `COc1ccc2nc([S@@+]([O-])Cc3ncc(C)c(OC)c3C)[nH]c2c1` [esomeprazole, reference compound], in data set [5], the ED50 turned out to be 4.12 mg/kg.
